Results as given in ChEMBL document CHEMBL2028040, “Malaria Box”.

What was measured:
[1] = system: Plasmodium falciparum; assay: MMV: Inhibition of Plasmodium falciparum 3D7 (EC50).; type: functional, organism-based
[2] = system: Trypanosoma brucei rhodesiense; assay: MMV: Inhibition of Trypanosoma brucei rhodesiense (STIB 900) (HAT in vitro).; type: functional, organism-based
[3] = system: Leishmania infantum; assay: MMV: Inhibition of Leishmania infantum (MHOM/MA/BE/67) in vitro.; type: functional, organism-based
[4] = system: Trypanosoma brucei brucei; assay: MMV: Inhibition of Trypanosoma brucei brucei (Squib 427) (HAT in vitro).; type: functional, organism-based
[5] = MMV: Cytotoxicity against human fibroblasts (MRC-5) cells.; details: MRC-5 cells (human fibroblasts)
[6] = system: Plasmodium falciparum; assay: MMV: Inhibition of Plasmodium falciparum 3D7 at 5uM compound concentration.; type: functional
[7] = system: Trypanosoma cruzi; assay: MMV: Inhibition of Trypanosoma cruzi (Tulahuen C4 LacZ) (Chagas in vitro).; type: functional, organism-based

| Structure (SMILES) | EC50 [1] | IC50 [2] | IC50 [3] | IC50 [4] | IC50 [5] | inhibition at 5 µM [6] | IC50 [7] |
| --- | --- | --- | --- | --- | --- | --- | --- |
| Cc1cc(NC(=O)c2ccc(-c3ccccc3)cc2)no1 | 0.693 µM | > 32 µM | > 32 µM | > 32 µM | > 32 µM | 95% | > 32 µM |
| O=C(Nc1ccc(-c2nc3ccccc3[nH]2)cc1)c1ccc(Cl)c(Cl)c1 | 0.838 µM | > 32 µM | > 32 µM | > 32 µM | > 32 µM | 97% | > 32 µM |
| COc1ccc(C(=O)C2CC2c2ccc(Cl)cc2)cc1 (stereo not drawn) | 1.06 µM | > 32 µM | > 32 µM | > 32 µM | > 32 µM | 94% | > 32 µM |
| COc1cc(-c2nc(-c3ccccc3)c(-c3ccccc3)[nH]2)cc(OC)c1O | 1.18 µM | 9.75 µM | 25.4 µM | 11.9 µM | > 32 µM | 97% | 28.3 µM |
| O=C(Nc1ccc(-c2nc3cc4ccccc4cc3[nH]2)cc1)c1cccc(Br)c1 | 0.45 µM | > 32 µM | > 32 µM | > 32 µM | > 32 µM | 93% | > 32 µM |
| COc1cc(CNCCc2ccc(Cl)cc2)cc(OC)c1O | 1.79 µM | 12.1 µM | > 32 µM | 15 µM | > 32 µM | 97% | > 32 µM |
| O=C(Nc1ccc(CN2CCOCC2)cc1)c1ccc(-c2cc(Cl)ccc2Cl)o1 | 1.95 µM | 4.44 µM | 25.4 µM | 14.9 µM | 17.4 µM | 97% | 12.1 µM |
| COc1nc(Nc2ccc(C(C)C)cc2)nc(OC)n1 | 1.14 µM | 10.7 µM | > 32 µM | 10.9 µM | > 32 µM | 88% | 24.5 µM |
| Cc1ccc(-c2cc(C(=O)Nc3ccc(S(=O)(=O)N4CCCCC4)cc3)[nH]n2)c(O)c1 | 0.535 µM | > 32 µM | > 32 µM | > 32 µM | > 32 µM | 94% | > 32 µM |
| O=C(NCc1ccco1)C1CCN(S(=O)(=O)c2ccc(Br)cc2)CC1 | 0.939 µM | > 32 µM | > 32 µM | > 32 µM | > 32 µM | 93% | > 32 µM |
| O=C(Cc1ccccc1)NC(c1ccc(Cl)cc1)c1c(O)ccc2ccccc12 (stereo not drawn) | 1.14 µM | 3.7 µM | 4.76 µM | 4.06 µM | 8.22 µM | 97% | 3.65 µM |
| CCCc1c(C)nc2ccc(Br)cc2c1O | 1.19 µM | > 32 µM | > 32 µM | > 32 µM | > 32 µM | 64% | > 32 µM |
| CCOc1ccccc1CNC(=O)C1c2ccccc2C(=O)N(CC(C)C)C1c1cccs1 (stereo not drawn) | 1.32 µM | 16.1 µM | > 32 µM | 16.1 µM | > 32 µM | 97% | 14.9 µM |
| COc1ccc(C(=O)Nc2nonc2-c2ccc(OC)c(OC)c2)cc1Cl | 0.516 µM | > 32 µM | > 32 µM | > 32 µM | > 32 µM | 92% | > 32 µM |
| CC(=O)NCCc1nc2ccccc2n1Cc1ccc(C(C)C)cc1 | 1.79 µM | > 32 µM | > 32 µM | > 32 µM | > 32 µM | 97% | > 32 µM |
| CCCN(CCC)CCCNC(=O)c1cc2c(-c3ccc(OC)c(OC)c3)nn(C)c2s1 | 1.43 µM | 14.6 µM | 16 µM | > 32 µM | > 32 µM | 98% | 27.5 µM |
| COc1cccc(-c2nn(C)c3sc(C(=O)NCCN4CCN(c5ccccc5F)CC4)cc23)c1 | 1.3 µM | 5.31 µM | > 32 µM | 16 µM | > 32 µM | 91% | > 32 µM |
| CCOc1ccc(-n2cc(-c3ccccc3)c3c(SCc4cc(C)ccc4C)ncnc32)cc1 | 1.71 µM | 25 µM | > 32 µM | > 32 µM | > 32 µM | 97% | > 32 µM |
| CCCc1c(CC)c(=N)c2ccccc2n1C | 0.242 µM | 16.2 µM | > 32 µM | 21 µM | 30.6 µM | 69% | 0.415 µM |
| Cc1nc2ccccc2c(O)c1CC=C(Cl)Cl | 0.836 µM | > 32 µM | > 32 µM | > 32 µM | > 32 µM | 89% | 1.88 µM |
| COc1ccc(-c2nc3cc(Cc4ccc5[nH]c(-c6ccc(OC)cc6)nc5c4)ccc3[nH]2)cc1 | 0.176 µM | < 0.125 µM | 4.06 µM | 0.179 µM | 4.76 µM | 98% | < 0.125 µM |
| Cc1cc(C)c2nc(N3CCC(C(=O)NCCCN4CCC(N5CCCCC5)CC4)CC3)sc2c1 | 0.697 µM | < 0.125 µM | 4.06 µM | 0.22 µM | 4.25 µM | 98% | 0.85 µM |
| Nc1ccc(-c2nc3cc(Oc4ccc(Oc5ccc6[nH]c(-c7ccc(N)cc7)nc6c5)cc4)ccc3[nH]2)cc1 | 0.842 µM | 2.74 µM | 4.06 µM | 1.94 µM | 8 µM | 97% | 3.91 µM |
| O=C(NCCCN1CCC(N2CCCCC2)CC1)C1=Cc2cc(Br)ccc2OC1 | 0.563 µM | 0.859 µM | 4.03 µM | 0.805 µM | 12 µM | 99% | 4.22 µM |
| CCOc1ccc(CN2CCN(CC(O)COc3ccc(OCC(O)CN4CCN(Cc5ccc(OCC)cc5)CC4)cc3)CC2)cc1 (stereo not drawn) | 1.2 µM | 0.964 µM | 2.52 µM | 3.52 µM | 10.7 µM | 97% | 2.54 µM |
| CN1c2ccccc2N(C)C1c1ccc2c(c1)OCO2 | 0.994 µM | > 32 µM | > 32 µM | > 32 µM | > 32 µM | 60% | > 32 µM |
| CC(Oc1ccc(NC(=O)c2cccs2)cc1)C(=O)c1ccc(Cl)cc1 (stereo not drawn) | 1.03 µM | 10.3 µM | > 32 µM | 15.5 µM | > 32 µM | 87% | 15.4 µM |
| CCCCc1ccc(NS(=O)(=O)c2cc3c4c(c2)CCN4C(=O)CC3)cc1 | 0.538 µM | 16.3 µM | 19 µM | > 32 µM | 5.61 µM | 96% | 13.6 µM |
| O=C(Nc1ccc(N2CCN(Cc3ccccc3)CC2)cc1)c1cccs1 | 1.07 µM | 9.69 µM | > 32 µM | 14.6 µM | > 32 µM | 59% | > 32 µM |
